Experiments:
[1] = tested on: blood-borne infection of schistosomiasis; assay: Blood test for schistosomiasis using Schisto POC-CCA in FGS after treatment; format: in vivo, human; conditions: female with FGS; three doses of 20 mg/kg oral praziquantel; after two weeks
[2] = tested on: schistosomiasis worms in the vagina; assay: Microscope observation of vaginal swab sample slides for schistosomiasis worms in FGS after treatment; format: in vivo, human; conditions: after two weeks
Text: A single dose of Praziquantel as described in Example 1 was vaginally inserted into the subject.

O=C(C1CCCCC1)N1CC(=O)N2CCc3ccccc3C2C1 (stereo not drawn) [praziquantel]
blood retested for schistosomiasis [1]: negative for schistosomiasis
observation of vaginal sample from brushing with a swab on microscope slides ([2]; female with FGS, three doses of 20 mg/kg oral praziquantel): live schistosomiasis worms still in the vagina
slides observed under the microscope for schistosomiasis worms ([2]; single dose vaginally inserted as in Example 1 (600 mg praziquantel in 2.5 g K-Y Jelly), same subject after oral treatment): negative for schistosomiasis worms

From US10857151B1, “Treatment of female genital schistosomiasis” (Villya LLC, priority 2020, dated 2020)
